Results as given in PubChem BioAssay AID1963970 (Molecular Pharmacology Branch, DTP, NCI, 2024).

Test system: 931267-113-T-J1-PDC multicell spheroid viability
Assay: Anticancer human tumor 931267-113-T-J1-PDC patient-derived colon adenocarcinoma cell line growth inhibition [PI3K]
Conditions: for IC50: curve of first compound; for viability, T/C: stronger effect = lower value
Summary of the method: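 Three cell types, namely tumor cells, endothelial cells and mesenchymal stem cells, formed each spheroid. Combinations with four PI3K inhibitors were screened at clinically achievable concentrations decreasing by half-log, and spheroid viability was recorded.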

[1] = second compound 0.0316 µM, first compound 0.0316 µM
[2] = second compound 0.0316 µM, first compound 0.1 µM
[3] = second compound 0.0316 µM, first compound 0.316 µM
[4] = second compound 0.0316 µM, first compound 1 µM
[5] = second compound 0.0316 µM, first compound 3.16 µM
[6] = second compound 0.0316 µM, first compound 10 µM
[7] = second compound 0.1 µM, first compound 0.0316 µM
[8] = second compound 0.1 µM, first compound 0.1 µM
[9] = second compound 0.1 µM, first compound 0.316 µM
[10] = second compound 0.1 µM, first compound 1 µM
[11] = second compound 0.1 µM, first compound 3.16 µM
[12] = second compound 0.1 µM, first compound 10 µM
[13] = second compound 0.316 µM, first compound 0.0316 µM
[14] = second compound 0.316 µM, first compound 0.1 µM
[15] = second compound 0.316 µM, first compound 0.316 µM
[16] = second compound 0.316 µM, first compound 1 µM
[17] = second compound 0.316 µM, first compound 3.16 µM
[18] = second compound 0.316 µM, first compound 10 µM
[19] = second compound 1 µM, first compound 0.0316 µM
[20] = second compound 1 µM, first compound 0.1 µM
[21] = second compound 1 µM, first compound 0.316 µM
[22] = second compound 1 µM, first compound 1 µM
[23] = second compound 1 µM, first compound 3.16 µM
[24] = second compound 1 µM, first compound 10 µM
[25] = second compound 3.16 µM, first compound 0.0316 µM
[26] = second compound 3.16 µM, first compound 0.1 µM
[27] = second compound 3.16 µM, first compound 0.316 µM
[28] = second compound 3.16 µM, first compound 1 µM
[29] = second compound 3.16 µM, first compound 3.16 µM
[30] = second compound 3.16 µM, first compound 10 µM
[31] = second compound 10 µM, first compound 0.0316 µM
[32] = second compound 10 µM, first compound 0.1 µM
[33] = second compound 10 µM, first compound 0.316 µM
[34] = second compound 10 µM, first compound 1 µM
[35] = second compound 10 µM, first compound 3.16 µM
[36] = second compound 10 µM, first compound 10 µM
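Also: viability read 7 days after compound addition.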

CC(C)NCC(C(=O)N1CCN(c2ncnc3c2C(C)CC3O)CC1)c1ccc(Cl)cc1 (stereo unspecified) + CC(Nc1ncnc2nc[nH]c12)c1cc2cccc(Cl)c2c(=O)n1-c1ccccc1 was tested, and the IC50 (second compound 0.0316 µM) was > 10 µM, the IC50 (second compound 0.1 µM) was > 10 µM and the IC50 (second compound 0.316 µM) was > 10 µM. The IC50 (second compound 1 µM) was > 10 µM, the IC50 (second compound 3.16 µM) was > 10 µM and the IC50 (second compound 10 µM) was > 10 µM. The viability, T/C [1] was 97.2%, the viability, T/C [2] was 99.5% and the viability, T/C [3] was 92.1%. The viability, T/C [4] was 101%, the viability, T/C [5] was 97.1% and the viability, T/C [6] was 81.6%. The viability, T/C [7] was 108%, the viability, T/C [8] was 95.6% and the viability, T/C [9] was 100%. For the same compound, the viability, T/C [10] was 98.8%, the viability, T/C [11] was 97.1% and the viability, T/C [12] was 74.7%. For the same compound, the viability, T/C [13] was 108%, the viability, T/C [14] was 107% and the viability, T/C [15] was 106%. The viability, T/C [16] was 94.7%, the viability, T/C [17] was 99.6% and the viability, T/C [18] was 85%. It also gave a viability, T/C [19] of 105%, a viability, T/C [20] of 107% and a viability, T/C [21] of 93%. For the same compound, the viability, T/C [22] was 99.6%, the viability, T/C [23] was 99.1% and the viability, T/C [24] was 80.7%. For the same compound, the viability, T/C [25] was 103%, the viability, T/C [26] was 100% and the viability, T/C [27] was 89.7%. The viability, T/C [28] was 94.6%, the viability, T/C [29] was 90.9% and the viability, T/C [30] was 71.7%. For the same compound, the viability, T/C [31] was 95.2%, the viability, T/C [32] was 86% and the viability, T/C [33] was 86.8%. The viability, T/C [34] was 87.7%, the viability, T/C [35] was 88.7% and the viability, T/C [36] was 75.1%.
With CCN1CCN(Cc2ccc(Nc3ncc(F)c(-c4cc(F)c5nc(C)n(C(C)C)c5c4)n3)nc2)CC1 + CC(Nc1ncnc2nc[nH]c12)c1cc2cccc(Cl)c2c(=O)n1-c1ccccc1 the IC50 (second compound 0.0316 µM) was > 1 µM, the IC50 (second compound 0.1 µM) was > 1 µM and the IC50 (second compound 0.316 µM) was > 1 µM. For the same compound, the IC50 (second compound 1 µM) was > 1 µM, the IC50 (second compound 3.16 µM) was > 1 µM and the IC50 (second compound 10 µM) was > 1 µM. The viability, T/C (second compound 0.0316 µM, first compound 0.00316 µM) was 102%, the viability, T/C (second compound 0.0316 µM, first compound 0.01 µM) was 94.6% and the viability, T/C [1] was 108%. It also gave a viability, T/C [2] of 100%, a viability, T/C [3] of 104% and a viability, T/C [4] of 90.2%. It also gave a viability, T/C (second compound 0.1 µM, first compound 0.00316 µM) of 101%, a viability, T/C (second compound 0.1 µM, first compound 0.01 µM) of 110% and a viability, T/C [7] of 104%. It also gave a viability, T/C [8] of 109%, a viability, T/C [9] of 100% and a viability, T/C [10] of 84.2%. For the same compound, the viability, T/C (second compound 0.316 µM, first compound 0.00316 µM) was 111%, the viability, T/C (second compound 0.316 µM, first compound 0.01 µM) was 107% and the viability, T/C [13] was 97.7%. The viability, T/C [14] was 98.5%, the viability, T/C [15] was 109% and the viability, T/C [16] was 98.2%. It also gave a viability, T/C (second compound 1 µM, first compound 0.00316 µM) of 103%, a viability, T/C (second compound 1 µM, first compound 0.01 µM) of 101% and a viability, T/C [19] of 105%. It also gave a viability, T/C [20] of 102%, a viability, T/C [21] of 102% and a viability, T/C [22] of 86%. For the same compound, the viability, T/C (second compound 3.16 µM, first compound 0.00316 µM) was 107%, the viability, T/C (second compound 3.16 µM, first compound 0.01 µM) was 93.4% and the viability, T/C [25] was 86.8%. For the same compound, the viability, T/C [26] was 95.3%, the viability, T/C [27] was 92.8% and the viability, T/C [28] was 81.2%. The viability, T/C (second compound 10 µM, first compound 0.00316 µM) was 92%, the viability, T/C (second compound 10 µM, first compound 0.01 µM) was 86.7% and the viability, T/C [31] was 89.7%. The viability, T/C [32] was 80.8%, the viability, T/C [33] was 81.9% and the viability, T/C [34] was 67.9%.
Compound Cn1ncc(Cl)c1-c1cc(C(=O)NC(CN)Cc2cccc(F)c2)sc1Cl (stereo unspecified) + CC(Nc1ncnc2nc[nH]c12)c1cc2cccc(Cl)c2c(=O)n1-c1ccccc1 has an IC50 (second compound 0.0316 µM) of 6.98 µM, an IC50 (second compound 0.1 µM) of 8.83 µM and an IC50 (second compound 0.316 µM) of 6.77 µM. It also gave an IC50 (second compound 1 µM) of 8.02 µM, an IC50 (second compound 3.16 µM) of 6.2 µM and an IC50 (second compound 10 µM) of 6 µM. It also gave a viability, T/C [1] of 100%, a viability, T/C [2] of 105% and a viability, T/C [3] of 101%. The viability, T/C [4] was 86%, the viability, T/C [5] was 85.7% and the viability, T/C [6] was 35.1%. It also gave a viability, T/C [7] of 106%, a viability, T/C [8] of 119% and a viability, T/C [9] of 96%. The viability, T/C [10] was 91.4%, the viability, T/C [11] was 86.8% and the viability, T/C [12] was 44.5%. The viability, T/C [13] was 114%, the viability, T/C [14] was 109% and the viability, T/C [15] was 99.3%. It also gave a viability, T/C [16] of 94.5%, a viability, T/C [17] of 79% and a viability, T/C [18] of 35.7%. It also gave a viability, T/C [19] of 107%, a viability, T/C [20] of 110% and a viability, T/C [21] of 92.5%. The viability, T/C [22] was 91.2%, the viability, T/C [23] was 80.6% and the viability, T/C [24] was 42.4%. The viability, T/C [25] was 99.7%, the viability, T/C [26] was 97.3% and the viability, T/C [27] was 97.8%. It also gave a viability, T/C [28] of 86.9%, a viability, T/C [29] of 74.5% and a viability, T/C [30] of 33.4%. The viability, T/C [31] was 92.9%, the viability, T/C [32] was 89.3% and the viability, T/C [33] was 90.2%. It also gave a viability, T/C [34] of 87.3%, a viability, T/C [35] of 67.3% and a viability, T/C [36] of 36.1%.
